These results are taken from US7718767B2, “3-ether and 3-thioether substituted cyclosporin derivatives for the treatment and prevention of hepatitis C infection” (Scynexis, Inc., priority 2006, dated 2010).

A word on the IC50: it is the concentration at which inhibition is half-maximal. As usually defined, the IC90 is the concentration at which the effect reaches the 90% level. As usually defined, the EC50 is the midpoint of the concentration-response curve. Usually EC90 stands for the point of the concentration-response curve where the effect stands at 90%. Lower therefore signals greater potency.

One data set deals with CEM-SS cells. The experiment in a line: Compound cytotoxicity in the HIV MTS assay (cells plus drug only). Format: cell-based, human. To be noted: 50% inhibition of cell growth. The protocol: In this MTS cytoprotection assay, each experiment included cell control wells (cells only), virus control wells (cells plus virus), drug toxicity wells (cells plus drug only), drug colorimetric control wells (drug only) as well as experimental wells (drug plus cells plus virus). […] HIV-1RF was added to each well in a volume of 50 μL, the amount of virus determined to give approximately 90% cell killing at 6 days post-infection. At assay termination, assay plates were stained with the soluble tetrazolium-based dye MTS (CellTiter 96 Reagent, Promega) to determine cell viability and quantify compound toxicity. MTS is metabolized by the mitochondria enzymes of metabolically active cells to yield a soluble formazan product, providing a quantitative analysis of cell viability and compound cytotoxicity. The assay was validated in parallel experiments using Zidovudine (3′-azido-3′-deoxythymidine or AZT) as a positive control.
(Tetrazolium assays rely on reduction of a dye to a coloured formazan, in cell work by metabolically active cells.)

Data set [1] concerns human hepatoma cell line ET. The experiment in a line: Cytotoxicity in the replicon cell line, colorimetric assay of cell numbers. To be noted: ET cells, 72 h; for IC50: read-out: Cytotoxicity IC50, concentration inhibiting cell viability by 50%; for IC90: read-out: Cytotoxicity IC90, concentration inhibiting cell viability by 90%. The text has this:
Compounds were examined in the human hepatoma cell line ET (lub ubi heo/ET), a HCV RNA replicon containing a stable luciferase (LUC) reporter. The HCV RNA replicon ET contains the 5′ end of HCV (with the HCV Internal Ribosome Entry Site (IRES) and the first few amino acids of the HCV core protein) which drives the production of a firefly luciferase (LUC), ubiquitin, and neomycin phosphotransferase (NeoR) fusion protein. Ubiquitin cleavage releases the LUC and NeoR proteins. The EMCV IRES element controls the translation of the HCV […] NS3-NS5. The NS3 protein cleaves the HCV polyprotein to release the mature NS3, NS4A, NS4B, NS5A and NS5B proteins that are required for HCV replication. At the 3′ end of the replicon is the authentic 3′ NTR of HCV. The activity of the LUC reporter is directly proportional to HCV replication levels and positive-control antiviral compounds produce a reproducible antiviral response using the LUC endpoint.
The compounds were dissolved in DMSO at five half-log concentrations each, ranging from either 0.02 to 2.0 μM, 0.03 to 3 μM, […], or 1 to 100 μM. Subconfluent cultures of the ET line were plated out into 96 well plates dedicated for the analysis of cell numbers (cytotoxicity) or antiviral activity and the next day the compounds were added to the appropriate wells. The cells were processed 72 h later when the cells were still subconfluent. […] The activity of the LUC reporter is directly proportional to HCV RNA levels in the human cell line. The HCV-replicon assay was validated in parallel experiments using interferon-alpha-2b as a positive control.

For a further data set, the system named is HCV RNA replicon ET. The experiment in a line: HCV RNA replicon luciferase reporter assay, antiviral activity. Format: cell-based. To be noted: ET replicon cells, 72 h, LUC activity; for EC50: concentration reducing viral replication by 50%; for EC90: concentration reducing viral replication by 90%. (In general: A replicon is a self-replicating genome or part of one, used to study replication in cells.)

The next data set deals with HIV-1IIIB. The experiment in a line: HIV MTS cytoprotection assay in CEM-SS cells. Type of data set: cell-based, human immunodeficiency virus-1. Particulars: 6 days post-infection, concentration inhibiting virus replication by 50%.

For `C/C=C/C[C@@H](C)[C@@H](O)[C@H]1C(=O)N[C@@H](CC)C(=O)N(C)[C@H](OCCN2CCOCC2)C(=O)N(C)[C@@H](CC(C)C)C(=O)N[C@@H](C(C)C)C(=O)N(C)[C@@H](CC(C)C)C(=O)N[C@@H](C)C(=O)N[C@H](C)C(=O)N(C)[C@@H](CC(C)C)C(=O)N(C)[C@@H](CC(C)C)C(=O)N(C)[C@@H](C(C)C)C(=O)N1C` [Compound L, 3-[2-(N-morpholine)ethoxy)cyclosporin], the figures for the IC50 (in the data set on CEM-SS cells; in data set [1]) were 19.5 µM and 11.5 µM, respectively. In data set [1], the IC90 was greater than 20 µM. Besides, the half-maximal effective concentration (EC50) in the data set on HCV RNA replicon ET was 0.28 µM; in the data set on HIV-1IIIB, 1.93 µM. Besides, the EC90 in the data set on HCV RNA replicon ET turned out to be 1.25 µM.
Turning to `C/C=C/C[C@@H](C)[C@@H](O)[C@H]1C(=O)N[C@@H](CC)C(=O)N(C)[C@H](SCCOC)C(=O)N(C)[C@@H](CC(C)(C)O)C(=O)N[C@@H](C(C)C)C(=O)N(C)[C@@H](CC(C)C)C(=O)N[C@@H](C)C(=O)N[C@H](C)C(=O)N(C)[C@@H](CC(C)C)C(=O)N(C)[C@@H](CC(C)C)C(=O)N(C)[C@@H](C(C)C)C(=O)N1C` [Compound N, 3-(2-methoxyethylthio)-4-(gamma-hydroxymethylleucine)cyclosporin], in data set [1], the IC50 was greater than 20 µM and the IC90 was greater than 20 µM. Further, in the data set with HCV RNA replicon ET, the half-maximal effective concentration (EC50) is less than 0.2 µM and the EC90 is less than 0.2 µM. Besides, the EC50 in the data set on HIV-1IIIB was found to be 0.35 µM.
For `C/C=C/C[C@@H](C)[C@@H](O)[C@H]1C(=O)N[C@@H](CC)C(=O)N(C)[C@H](SCCN(C)C)C(=O)N(C)[C@@H](CC(C)(C)O)C(=O)N[C@@H](C(C)C)C(=O)N(C)[C@@H](CC(C)C)C(=O)N[C@@H](C)C(=O)N[C@H](C)C(=O)N(C)[C@@H](CC(C)C)C(=O)N(C)[C@@H](CC(C)C)C(=O)N(C)[C@@H](C(C)C)C(=O)N1C` [Compound O, 3-[(R)-2-(N,N-dimethylamino)ethylthio-Sar]-4-(gamma-hydroxymethylleucine)cyclosporin], the concentration for half-maximal inhibition (IC50) with CEM-SS cells was 20 µM. For the same compound, in data set [1], the IC50 came to 13.4 µM and the IC90 was greater than 20 µM. Moreover, in the data set on HCV RNA replicon ET, the EC50 stood at 0.122 µM and the EC90 was found to be 0.3 µM. For the same compound, the concentration giving a half-maximal response (EC50) with HIV-1IIIB is 0.06 µM.
As for `C/C=C/C[C@@H](C)[C@@H](O)[C@H]1C(=O)N[C@@H](CC)C(=O)N(C)C(OC)C(=O)N(C)[C@@H](CC(C)(C)O)C(=O)N[C@@H](C(C)C)C(=O)N(C)[C@@H](CC(C)C)C(=O)N[C@@H](C)C(=O)N[C@H](C)C(=O)N(C)[C@@H](CC(C)C)C(=O)N(C)[C@@H](CC(C)C)C(=O)N(C)[C@@H](C(C)C)C(=O)N1C` (stereo partly shown) [Compound T, 3-(methoxy)-4-(gamma-hydroxymethylleucine)cyclosporin], in the data set on CEM-SS cells, the IC50 stood at 18 µM. In data set [1], the IC50 is greater than 2 µM and the IC90 is greater than 2 µM.
For the compound `C/C=C/C[C@@H](C)[C@@H](O)[C@H]1C(=O)N[C@@H](CC)C(=O)N(C)[C@H](OC(C)C)C(=O)N(C)[C@@H](CC(C)C)C(=O)N[C@@H](C(C)C)C(=O)N(C)[C@@H](CC(C)C)C(=O)N[C@@H](C)C(=O)N[C@H](C)C(=O)N(C)[C@@H](CC(C)C)C(=O)N(C)[C@@H](CC(C)C)C(=O)N(C)[C@@H](C(C)C)C(=O)N1C` [D, 3-(isopropoxy)cyclosporin], in the data set on CEM-SS cells, the IC50 is greater than 20 µM. In data set [1], the IC50 turned out to be 17.2 µM and the IC90 is greater than 20 µM. In the data set on HCV RNA replicon ET, this compound returned an EC50 of 0.29 µM and an EC90 of 1.32 µM. Also, the EC50 with HIV-1IIIB was determined as 1.36 µM.
Turning to `C/C=C/C[C@@H](C)[C@@H](O)[C@H]1C(=O)N[C@@H](CC)C(=O)N(C)C(OCCCO)C(=O)N(C)[C@@H](CC(C)C)C(=O)N[C@@H](C(C)C)C(=O)N(C)[C@@H](CC(C)C)C(=O)N[C@@H](C)C(=O)N[C@H](C)C(=O)N(C)[C@@H](CC(C)C)C(=O)N(C)[C@@H](CC(C)C)C(=O)N(C)[C@@H](C(C)C)C(=O)N1C` (stereo partly shown) [H, 3-(3-hydroxypropoxy)cyclosporin], in the data set with CEM-SS cells, the IC50 is 13.3 µM. In addition, in data set [1], the IC50 is greater than 20 µM and the IC90 is greater than 20 µM. Further, in the data set on HCV RNA replicon ET, the EC50 was less than 0.2 µM and the 90% effect concentration (EC90) worked out at 0.37 µM. The same compound showed a concentration giving a half-maximal response (EC50) in the data set with HIV-1IIIB of 1.38 µM.
For `C/C=C/C[C@@H](C)[C@@H](O)[C@H]1C(=O)N[C@@H](CC)C(=O)N(C)C(SCC)C(=O)N(C)[C@@H](CC(C)C)C(=O)N[C@@H](C(C)C)C(=O)N(C)[C@@H](CC(C)C)C(=O)N[C@@H](C)C(=O)N[C@H](C)C(=O)N(C)[C@@H](CC(C)C)C(=O)N(C)[C@@H](CC(C)C)C(=O)N(C)[C@@H](C(C)C)C(=O)N1C` (stereo partly shown) [P, 3-ethylthiocyclosporin], the half-maximal inhibitory concentration (IC50) in the data set on CEM-SS cells is 6.15 µM. In data set [1], the IC50 worked out at 6.15 µM and the IC90 was greater than 20 µM. In addition, in the data set with HCV RNA replicon ET, the midpoint of the response, the EC50, lay at 0.23 µM and the EC90 was 0.58 µM. Also, in the data set with HIV-1IIIB, the EC50 was 0.16 µM.
Take `C=CCS[C@@H]1C(=O)N(C)[C@@H](CC(C)C)C(=O)N[C@@H](C(C)C)C(=O)N(C)[C@@H](CC(C)C)C(=O)N[C@@H](C)C(=O)N[C@H](C)C(=O)N(C)[C@@H](CC(C)C)C(=O)N(C)[C@@H](CC(C)C)C(=O)N(C)[C@@H](C(C)C)C(=O)N(C)[C@@H]([C@H](O)[C@H](C)C/C=C/C)C(=O)N[C@@H](CC)C(=O)N1C` [Q, 3-propenylthiocyclosporin]: the concentration for half-maximal inhibition (IC50) (in the data set with CEM-SS cells; in data set [1]) was 18.9 µM each time. In data set [1], the IC90 is greater than 20 µM. Besides, the half-maximal effective concentration (EC50) is 0.21 µM in the data set with HCV RNA replicon ET and 0.23 µM in the data set with HIV-1IIIB. Also, the EC90 in the data set with HCV RNA replicon ET is 0.62 µM.
For `C/C=C/C[C@@H](C)[C@@H](O)[C@H]1C(=O)N[C@@H](CC)C(=O)N(C)[C@H](SCCOC)C(=O)N(C)[C@@H](CC(C)C)C(=O)N[C@@H](C(C)C)C(=O)N(C)[C@@H](CC(C)C)C(=O)N[C@@H](C)C(=O)N[C@H](C)C(=O)N(C)[C@@H](CC(C)C)C(=O)N(C)[C@@H](CC(C)C)C(=O)N(C)[C@@H](C(C)C)C(=O)N1C` [R, 3-[(2-methoxy)ethylthio]cyclosporin], the IC50 in the data set with CEM-SS cells worked out at 17.3 µM. Besides, in data set [1], the half-maximal inhibitory concentration (IC50) worked out at 11.1 µM and the IC90 was greater than 20 µM. In the data set on HCV RNA replicon ET, this compound came in with an EC50 of 0.31 µM and an EC90 of 0.59 µM. It took 0.5 µM to reach a half-maximal effect with HIV-1IIIB (EC50).
Consider `C/C=C/C[C@@H](C)[C@@H](O)[C@H]1C(=O)N[C@@H](CC)C(=O)N(C)C(SC)C(=O)N(C)[C@@H](CC(C)(C)O)C(=O)N[C@@H](C(C)C)C(=O)N(C)[C@@H](CC(C)C)C(=O)N[C@@H](C)C(=O)N[C@H](C)C(=O)N(C)[C@@H](CC(C)C)C(=O)N(C)[C@@H](CC(C)C)C(=O)N(C)[C@@H](C(C)C)C(=O)N1C` (stereo partly shown) [S, 3-(methylthio)-4-(gamma-hydroxymethylleucine)cyclosporin], for which the concentration for half-maximal inhibition (IC50) with CEM-SS cells is 14 µM; in data set [1] it was greater than 2 µM. Also, in data set [1], the IC90 is greater than 2 µM. Besides, it took 0.16 µM to reach the 90% level with HCV RNA replicon ET (EC90). In the data set on HIV-1IIIB, the midpoint of the response, the EC50, lay at 0.09 µM.
`C=CCO[C@@H]1C(=O)N(C)[C@@H](CC(C)(C)O)C(=O)N[C@@H](C(C)C)C(=O)N(C)[C@@H](CC(C)C)C(=O)N[C@@H](C)C(=O)N[C@H](C)C(=O)N(C)[C@@H](CC(C)C)C(=O)N(C)[C@@H](CC(C)C)C(=O)N(C)[C@@H](C(C)C)C(=O)N(C)[C@@H]([C@H](O)[C@H](C)C/C=C/C)C(=O)N[C@@H](CC)C(=O)N1C` [U, 3-(prop-2-ene-1-oxy)-4-(gamma-hydroxymethylleucine)cyclosporin]: the IC50 in the data set with CEM-SS cells was found to be 13.4 µM. For the same compound, in data set [1], the IC50 is greater than 2 µM and the concentration for an effect of 90% (IC90) was greater than 2 µM. Also, in the data set with HCV RNA replicon ET, the 50% effective concentration (EC50) is 0.09 µM and the EC90 was 0.45 µM. The compound further yielded an EC50 in the data set with HIV-1IIIB of 0.11 µM.
